The values below come from patent US8465780B2, “Borate micro emulsion and method for making the same” (Nisus Corporation, priority 2006, dated 2013).

The subject of one data set is algae. Briefly: Algae growth suppression in lake water (Example 4). The format is cell-based. As to conditions: 0.1 weight percent in lake water, two months outside in sun; higher = more algal growth.
Data set [1] can be described thus: Borate dissolution test in 300 mm water column. The format is physicochemical. The following applies: 0.2 g (0.08 weight %) in 250 ml deionized water, 300 mm column. The protocol: In this example, different forms of borates were added to columns of water and a swimming pool to determine their comparative dispersion and rate of dissolution characteristics.
Two hundred and fifty (250) ml of deionized water was placed in each of 4 measuring cylinders to give a 300 mm vertical column of water in each cylinder to mimic in small scale the depth of water in a swimming pool. […] The results of the addition were then observed visually and recorded.

Data set [2] can be described thus: Free chlorine and pH in 2000 gallon swimming pools (Example 6).
Experimental: In this example, different borates were added to swimming pools, together with a chlorine-based sanitizer, in order to measure pH and free chlorine (CY) levels in the swimming pools over a period it time.
Three substantially identical, 2000 gallon above-ground swimming pools were used for the tests. Each pool was initially filled with approximately 2000 gallons of tap water, and then 500 milliliters of lake water was added to each pool to inoculate the pool water with algae. The testing was conducted during the month of September at a location near Knoxville, Tenn.
In the first pool, approximately 4 pounds of sodium tetraborate was added to the pool water. […] The third pool was used as a control with no form of borate being added to the pool water. The borates in the first and second pools were then allowed to mix overnight.
The following morning, initial pH and chlorine measures were taken for each pool at approximately 9:45 am. Approximately 0.3 pounds of calcium hypochlorate was then added to the water in each of the three swimming pools at approximately 10 am. The pH and chlorine levels in each of the pools were then measured periodically over the course of the day.

Experimental for algae: From this lake sample, three 1 liter glass beakers were each filled with 900 mL of lake water. […] Sodium tetraborate was added to a second beaker to provide a concentration of 0.1 weight percent sodium tetraborate. The third beaker was left as an untreated control. The three samples, which were collected in August, were then left outside, fully exposed to the sun, for a period of two months.
After the two month period, the samples were then visually inspected for algal growth. The samples were also analyzed using a Spectronic Genesys 20 spectrophotometer from Thermo Scientific. This analysis was conducted by testing for absorbance at 330 nm.

Take `O=BOB(O)OB(O)OB=O` [Sodium tetraborate, sodium tetraborate]: the “Absorbance (Abs.) at 330 nm” value in the data set with algae worked out at 0.01 Abs.

Turning to `OB(O)O` [boric acid, reference compound], the “dispersion and dissolution, observed visually” value in data set [1] is “mostly float on top of the water and did not completely dissolve”.

Take `O.O.O.O.O=BOB1OB(OB=O)OB2OB([O-])OB([O-])OB(O1)O2.[Na+].[Na+]` [disodium octaborate tetrahydrate]: the “dispersion and dissolution, observed visually” value in data set [1] is “immediately disperse and fully dissolve in a matter of seconds”.

On to sodium hexaborate, for which the “pH for swimming pool water” value in data set [2] (1:25 pm), in data set [2] (2:10 pm), in data set [2] (2:50 pm), in data set [2] (3:30 pm), in data set [2] (4:10 pm) and in data set [2] (5:00 pm) was 7.2-7.8 throughout. The “pH for swimming pool water” value was 7.2-7.8 in data set [2] (9:45 am, before calcium hypochlorate addition, 4 pounds borate per 2000 gallons); 7.2-7.8 in data set [2] (10:00 am, time of calcium hypochlorate addition); 7.2-7.8 in data set [2] (10:55 am); 7.8-8.4 in data set [2] (11:15 am); 7.8-8.4 in data set [2] (12:00 pm); 7.8-8.4 in data set [2] (12:40 pm).
